According to patent US20210255168A1, “A METHOD OF PRECISION CANCER THERAPY” (KING FAISAL SPECIALIST HOSPITAL & RESEARCH CENTRE, priority 2018, published 2021):

How the values were obtained:
Type in all cases: cell-based
[1] = test system: TNF-α-ARE luciferase reporter in MDA-MB-231 cells; assay: Post-transcriptional ARE luciferase reporter assay (kinase inhibitor library screen)
From the text: Reporters were designed to be driven by the ribosomal protein subunit 30 (RPS30) promoter. The promoter was amplified using PCR with primers specific to the flanking region of the RPS30 promoter sequence. The gene structure of RPS30 was obtained from the Ribosomal Protein Database (http://ribosome.med.miyazaki-u.ac.jp). The forward and reverse primers included the restriction sites, EcoR V and SalI sites. Amplified DNA fragments were then resolved in 1.2%-1.5% agarose gel and the amplicon bands were excised, purified and cloned into the promoterless plasmid. TNF-α 3′-UTR and TNF-α ARE were used to study the role of AU-rich elements in the action of PKs inhibitors. The AU-rich sequence that comprised 250 bases from TNF-α 3′UTR (1200-1450 bp, NM_00059) was amplified by PCR using the forward primer 5′-[…]-3′ (SEQ ID NO:1) and the reverse primer 5′-[…]-3′ (SEQ ID NO:2). The TNF-α-ARE sequence was made by annealing two synthetic complementary oligonucleotides of 70 bases that correspond to TNF-α ARE. The control reporter was constructed to have the basic structure of post-transcriptional reporter except 3′UTR which lack the AU-rich element sequence like this of bovine growth hormone. Any ARE reiterations or variations can be used, with minimal sequence is AUUUA, preferably, WW(AUUUA)WW, where W=A or U. They can be also repeated as an overall, e.g., AUUUAUUA, anywhere from 0 to 10 repeats as example.
Selleckchem Kinase Inhibitor Library that includes a selection of 378 pharmacologically active inhibitors of a number of protein kinases was purchased from Selleckchem. (Houston, Tex., USA). This library is a collection of 378 kinase inhibitors some of which have been approved by the FDA. Each compound is provided as a pre-dissolved 10 mM dimethyl sulfoxide (DMSO) solution as a 96 well format tube (100 μL). The compounds were diluted by OPTI-MEM (Thermo Fisher Scientific, Waltham, Mass., USA) to a final concentration of 5 μM.
Post-transcriptional and control reporter constructs were transfected to MDA-MB-231 cells separately that were seeded in 96-well microplates at a density of 4×10^4 cells/well and incubated overnight. Using lipofectamine 2000 protocol (Invitrogen, Carlsbad, Calif., USA), the cells were transfected with 10 ng of either RPS30-luciferase-control 3′UTR or RPS30-luciferase-ARE 3′UTR reporter plasmids. After 24 h, the cells were treated with each member of protein kinase inhibitors kit for 24 h. Then, luciferase reaction was performed as prescribed by manufacture's protocol (Nano-Glo Luciferase, Promega, Madison, Wis., USA)/well. After 15 minutes, the reporters' activities were measured through the measurement of the chemiluminescence (FIG. 8) after treatment using a Zenith 3100 (Anthos Labtec, Eugendorf, Austria).
Data are presented as means±standard error of the mean (SEM). Two-sample Student's t-test was used to determine the differences between two data sets. One-way analysis of variance (ANOVA) was used to compare three or more data columns. Two-way analysis of variance was used to analyze two groups of data, each having two data columns. Analysis was performed using GraphPad Prism version 6.00 for Windows, (GraphPad Software, La Jolla Calif., USA). For high throughput screening (HTS) hit selection (protein kinase inhibitors), strictly standardized mean difference (SSMD) test was used. This statistical test measures the size of effect of each member in a group relative to the other members. It is the mean of each member divided by the standard deviation of the difference between two random values from different groups. Based on the value of SSMD, the effect of each member of the library was classified as strong (β≥5), moderate (1≤β<5), and weak (β<1). In this study, only drug with SSMD score more than or equal to 5 or less than or equal to −5, i.e. strong β, where selected in the primary screening. […]

[2] = test system: TNF-α-ARE luciferase reporter in MDA-MB-231 cells; assay: as above; details: 0.5, 2 and 5 μM, ARE and non-ARE reporters
[3] = test system: HuR mRNA in MDA-MB-231 cells; assay: qPCR for HuR mRNA expression; details: MDA-MB-231, 24 h, vs DMSO
Experimental: Cells were cultured in six-well plates and either treated with DMSO or drugs for 24 h. Total RNA was then extracted using Trizol reagent (TRI Reagent, Sigma-Aldrich, St Louis, Mo.). The cells were lysed directly on the culture dish by adding 1 ml of the TRI Reagent per 10 cm^2 surface area. Reverse transcription for preparation of cDNA was performed using 3 μg of total RNA, 150 ng random primers, 0.1 M dithiothreitol (DTT), 10 mM deoxynucleotide triphosphate (dNTP) and 200 U of SuperScript II (Invitrogen, Foster City, Calif.). The quantitative RT-QPCR was performed in multiplex in the Chroma 4 DNA Engine cycler (BioRad, Hercules, Calif., USA) using FAM-labelled TaqMan probes (Applied Biosystems, Foster City, Calif., USA) for TTP (ZFP36), HuR (ELAVL1), uPA (PLAU)-CXCR4, MMP-1, MMP-13, IL-8, PLK-1 while a VIC-labelled glyceraldehyde-3-phosphate dehydrogenase (GAPDH) probe was used as the endogenous control. Samples were amplified in triplicate and quantification of relative expression was performed using the estimation of quantitation cycle (Cq) method.
To study the influence of PLK-1 inhibition on ARE-containing mRNA stability, the effect of volasertib treatment on the half-life of uPA was analyzed. Half-life of uPA mRNA was reduced from >6 hr to 0.5 hr in response to volasertib treatment compared to the DMSO control (FIG. 12C). […]

[4] = test system: MDA-MB-231 cells; assay: Proliferation assay (RTCA); details: MDA-MB-231, 300 nM, vs DMSO
Experimental: MDA-MB-231 cells were seeded in 6-well cell culture plates and incubated overnight. The cells were treated with the selected protein kinase inhibitors and incubated overnight. Then they were reseeded onto the invasion chamber in serum-free media at a density of 2×10^4 cells per well using 16-well CIM-Plate in Real-Time Cell Analysis (RTCA) Dual Plate (DP) Analyzer (ACEA Bioscinece, California, USA) that was loaded inside the incubator. The lower chambers to which cells will migrate were prepared to contain chemoattractant consisted of 10% FBS. For invasion assays, Matrigel (BioCoat, BD Biosciences, MA) which resembles the complex extracellular environment found in many tissues was prepared and used to coat the upper chamber of CIM plates. Invasion and migration were monitored continuously over 72-hour period using RTCA Software (ACEA Bioscinece, California, USA). The RTCA Instrument automatically monitors the cells every 15 minutes for 100 repetitions. For proliferation assays, the same principle was applied using a single chamber containing complete DMEM media (FIG. 10).
Based on the dose-response curve, 330 nM was selected to be used as a standard dose for the experiments. In the invasion assay, MDA-MB-231 cells were treated with volasertib or DMSO for 24 hr, then invasion was monitored for 30 hr.

SMILES: CC[C@@H]1C(=O)N(C)c2cnc(Nc3ccc(C(=O)N[C@H]4CC[C@H](N5CCN(CC6CC6)CC5)CC4)cc3OC)nc2N1C(C)C [volasertib]
- reduction of TNF-ARE luciferase reporter activity ([1]; primary screening, 5 μM): 40%
- reduction in percent reporter activity in the secondary screening compared to the control reporter ([1]; secondary screening, ARE vs non-ARE control reporter): same reduction in percent reporter activity
- ARE-dependent mRNA regulation confirmed in later stages of screening compared to a non-ARE reporter [2]: confirmed to be involved in ARE-dependent mRNA regulation
- reduction of HuR mRNA expression [3]: 60%
- proliferation [4]: significantly reduced
